Results taken from article PMC8416020 (eLife, 2021).
“And” between values parts separate entries of the source, which are not always exact repeats. Identical values can stand only once. Like-named read-outs stand apart in the source and are kept apart here.

Tests used:
[1] = test system: GHSR; conditions: ref Ferré et al., 2019; cited from earlier work
Experimental: For labeling with 7H4MC-ethylglycine, the TAG amber codon was introduced at the positions indicated in Figure 1A by site-directed mutagenesis with the pET21a expression vector encoding human GHSR fused to the α5 integrin ([Damian et al., 2012]). The UAA solution was prepared by dissolving 263 mg of 7H4MC-ethylglycine in 10 mL 200 mM KOH solution and filter-sterilizing. […] Cultures were grown at 37°C ...

[2] = test system: GHSR labeled with 7H4MC-ethylglycine at F272^6.44; experiment: Hydration parameter H from 7H4MC fluorescence emission; format: biochemical, human; conditions: for H parameter: 6.44, ligand 10 µM, POPC:POPG nanodiscs, 15°C, ex 320 nm
Description: (§1) We then investigated whether the fluorescence properties of 7H4MC-ethylglycine could report on the local hydration features of GHSR. To this end, we analyzed the 7H4MC emission profile for each of the positions considered. An excitation wavelength of 320 nm was systematically used to excite the neutral form of the fluorophore ([Amaro et al., 2015]). The emission spectra were deconvoluted into their separate components using the procedure initially described ([Amaro et al., 2015]). A hydration parameter H was then determined that corresponded to the sum of the contributions of the anionic and tautomer forms. This parameter is an indicator of the extent of hydration at the position considered, as the higher the H parameter the higher local hydration ([Amaro et al., 2015]). A difference in the H parameter inferred for the 7H4MC probe at the different positions of the apo GHSR was observed depending on the position considered (Figure 2—figure supplement 1, 2).
(§2) Figure 2. Local hydration of growth hormone secretagogue receptor (GHSR) as a function of ligands. […] All ligands were used at a 10 µM concentration. In all cases, the data represents the mean value ± SD of three experiments. Statistical analyses are provided in […]—figure supplement 2 and 4. Figure 2—source data 1. H parameter for GHSR and its mutants. Figure 2—figure supplement 1. Emission spectra of L-(7-hydroxycoumarin-4-yl) (7H4MC)-ethylglycine incorporated into isolated growth hormone secretagogue receptor (GHSR). The spectra were recorded in the absence of ligand. The labeling positions are given in a snake-like plot of GHSR ([Shiimura et al., 2020]) (A) (red: positions deleterious to GHSR function; green: positions considered in this work), and then indicated in each panel (B–F). The excitation wavelength was set to 320 nm with an emission intensity recorded between 340 and 600 nm. The gray curve represents the experimental emission spectrum (exp). The red, blue, green, and magenta spectra represent the decomposition of the experimental spectrum into its neutral (N), complexed (C), anionic (A), and tautomeric (T) components, respectively. The orange curve (fit) corresponds to sum of the individual N, C, A, and T curves. Figure 2—figure supplement 1—source data 1. 7-H4MC emission intensity of the apo GHSR mutants. [drawing 7] Figure 2—figure supplement 2. Statistical analysis of the data in Figure 2. […] Data is from Figure 2. […] Structure of the ligands used throughout this work. [drawing 9] Figure 2—figure supplement 4. Statistical analysis of the data in Figure 2. The left panels show the hydration parameter for each of the mutants in the absence or in the presence of ligands. Data are from Figure 2. The right panels show the mean difference between the apo and the ligand-loaded states for each of the mutants with multiplicity-adjusted 95% confidence intervals. [drawing 10] Figure 2—figure supplement 5. Emission spectra of L-(7-hydroxycoumarin-4-yl) (7H4MC)-ethylglycine incorporated at position 5.58 of growth hormone secretagogue receptor (GHSR) in the presence of pharmacologically distinct ligands or phosphatidylinositol-4,5-bisphosphate (PIP2). […] The excitation wavelength was set to 320 nm with an emission intensity recorded between 340 and 600 nm. The black curve represents the experimental emission spectrum (exp). The red one (fit) corresponds to sum of the individual curves after decomposition of the experimental spectrum into its neutral, complexed, anionic, and tautomeric components. Figure 2—figure supplement 5—source data 1. 7-H4MC emission intensity of the GHSR 5.58 mutant in the presence of ligands. [drawing 11] Figure 2—figure supplement 6. […]

[3] = test system: GHSR labeled with 7H4MC-ethylglycine at I134^3.43; experiment: as above; format: biochemical, human; conditions: ligand 10 µM, POPC:POPG nanodiscs, 15°C, ex 320 nm
Description: as §1, §2

[4] = test system: GHSR labeled with 7H4MC-ethylglycine at S315^7.45; experiment: as above; format: biochemical, human; conditions: ligand 10 µM, POPC:POPG nanodiscs, 15°C, ex 320 nm
Description: as §1, §2

[5] = test system: GHSR labeled with 7H4MC-ethylglycine at V268^6.40; experiment: as above; format: biochemical, human; conditions: 6.4, ligand 10 µM, POPC:POPG nanodiscs, 15°C, ex 320 nm
Description: as §1, §2

[6] = test system: GHSR labeled with 7H4MC-ethylglycine at Y232^5.58; experiment: as above; format: biochemical, human; conditions: for H parameter: 5.58, ligand 10 µM, POPC:POPG nanodiscs, 15°C, ex 320 nm
Description: as §1, §2

[7] = test system: GHSR; conditions: ref M'Kadmi et al., 2015; cited from earlier work
[8] = target: GHSR1a (Homo sapiens) (UniProt Q92847); conditions: cited from earlier work
[9] = target: GHSR (Homo sapiens) (UniProt Q92847); conditions: cited from earlier work
[10] = target: GHSR (Homo sapiens) (UniProt Q92847); experiment: FRET; conditions: cited from earlier work
[11] = target: GHSR (Homo sapiens) (UniProt Q92847); experiment: 125I-ghrelin radioligand binding; conditions: cited from earlier work
[12] = test system: 7H4MC-labeled GHSR; experiment: Hydration parameter H from 7H4MC fluorescence emission, several positions together; format: biochemical, human; conditions: any of the positions considered; saturating ligand (10 µM)
Description: as §1
Figure 2. Local hydration of growth hormone secretagogue receptor (GHSR) as a function of ligands. […] All ligands were used at a 10 µM concentration. […] The spectra were recorded in the absence of ligand. […] The excitation wavelength was set to 320 nm with an emission intensity recorded between 340 and 600 nm. […] The excitation wavelength was set to 320 nm with an emission intensity recorded between 340 and 600 nm. […]

[13] = test system: isolated GHSR; conditions: ref Mary et al., 2012; Damian et al., 2015; cited from earlier work
Description: We then used 7H4MC fluorescence to monitor the impact of ligand binding on the hydration pattern of GHSR.

[14] = test system: adenosine A2a receptor; conditions: ref Yen et al., 2018; cited from earlier work
Description: (§3) In addition to ligands, other components in the receptor environment allosterically impact on GPCR activation and conformational dynamics. […] Among the lipids reported to affect GPCR signaling such as cholesterol ([Casiraghi et al., 2016]; [Zocher et al., 2012]) or charged phospholipids ([Strohman et al., 2019]; [Daw ...

[15] = test system: ghrelin receptor; conditions: ref Damian et al., 2021; cited from earlier work
Description: as §3

[16] = test system: neurotensin receptor 1; conditions: ref Yen et al., 2018; cited from earlier work
Description: as §3

[17] = test system: β1-adrenergic receptor; conditions: ref Yen et al., 2018; cited from earlier work
Description: as §3

[18] = target: T1, GHSR (Homo sapiens, UniProt Q92847); experiment: FRET
T1 chain: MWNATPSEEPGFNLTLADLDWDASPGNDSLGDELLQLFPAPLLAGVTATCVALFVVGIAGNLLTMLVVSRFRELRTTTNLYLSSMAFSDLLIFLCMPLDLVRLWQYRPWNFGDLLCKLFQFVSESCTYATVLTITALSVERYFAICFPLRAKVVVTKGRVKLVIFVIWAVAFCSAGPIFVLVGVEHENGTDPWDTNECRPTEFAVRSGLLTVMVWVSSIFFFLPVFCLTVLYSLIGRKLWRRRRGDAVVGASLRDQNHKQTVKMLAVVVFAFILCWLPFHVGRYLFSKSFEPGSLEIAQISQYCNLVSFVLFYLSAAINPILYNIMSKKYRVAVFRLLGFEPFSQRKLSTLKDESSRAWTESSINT

[19] = saturating ligand (10 µM), vs apo
[20] = 2.5% PIP2 in nanodiscs, 10 µM ghrelin

| Molecule | H parameter ([2]; replicate 1) | H parameter ([2]; replicate 2) | H parameter ([2]; replicate 3) | H parameter ([3]; replicate 1) | H parameter ([3]; replicate 2) | H parameter ([3]; replicate 3) | H parameter ([4]; replicate 1) | H parameter ([4]; replicate 2) | H parameter ([4]; replicate 3) | H parameter ([5]; replicate 1) | H parameter ([5]; replicate 2) | H parameter ([5]; replicate 3) | H parameter ([6]; replicate 1) | H parameter ([6]; replicate 2) | H parameter ([6]; replicate 3) | pharmacological class [7] | also measured |
| --- | --- | --- | --- | --- | --- | --- | --- | --- | --- | --- | --- | --- | --- | --- | --- | --- | --- |
| JMV2959 | – | – | – | – | – | – | – | – | – | – | – | – | – | – | – | – | pharmacological class (affinity chromatography ligands) [1]: antagonist |
| COc1ccc(Cn2c(CCc3ccccc3)nnc2[C@@H](Cc2c[nH]c3ccccc23)NC(=O)c2ccccn2)c(OC)c1 [JMV3002] | 24.24 | 22.63 | 23.15 | 67.89 | 65.22 | 66.89 | 21.56 | 20.44 | 18.97 | 66.83 | 65.42 | 67.29 | 26.59 | 27.63 | 28.26 | Gq-biased partial agonist | change in the hydration parameter at position 6.44 upon binding [2, 19]: decrease in the hydration parameter at position 6.44; change in the hydration parameter at position 5.58 upon binding [6, 19]: no change was observed for the probe at position 5.58; Gi activation and arrestin recruitment [7]: triggers neither Gi activation nor arrestin recruitment |
| ghrelin (from UniProt Q9UBU3) | – | – | – | – | – | – | – | – | – | – | – | – | – | – | – | – | Kd [8]: 0.4 nM; Kd [9]: 12.5 nM; Ki [10]: 4.6 nM; Kd [11]: 4.4 nM and 2.3 nM |
| COc1ccc(Cn2c(CCc3c[nH]c4ccccc34)nnc2C(Cc2c[nH]c3ccccc23)NC(=O)c2ccccn2)c(OC)c1 (stereo not shown) [JMV3011] | 34.06 | 36.74 | 35.98 | 62.25 | 63.97 | 62.73 | 21.2 | 22.69 | 23.47 | 64.53 | 63.48 | 65.36 | 24.19 | 26.01 | 26.56 | neutral antagonist | change in the hydration parameter upon binding [12]: not accompanied by a measurable change in the hydration parameter; change in the conformation of isolated GHSR [13]: not associated with any change in the conformation of isolated GHSR |
| phosphatidylinositol-4,5-bisphosphate [PIP2] | – | – | – | – | – | – | – | – | – | – | – | – | – | – | – | – | effect of adding PIP2 on the H parameter for position 6.44 [2, 20]: decreased that for position 6.44; effect of adding PIP2 on the H parameter for position 5.58 [6, 20]: increased the H parameter for position 5.58; stabilization of the receptor:G protein complex [14]: stabilize the receptor:G protein complex; effect on ghrelin signaling [15]: allosteric regulator of ghrelin signaling; stabilization of the receptor:G protein complex [16]: stabilize the receptor:G protein complex; stabilization of the receptor:G protein complex [17]: stabilize the receptor:G protein complex |
| GSSFLSPEHQRVQQRKESKKPPAKLQP [ghrelin] | – | – | – | – | – | – | – | – | – | – | – | – | – | – | – | – | Ki [18]: 77 nM |
